Data from PubChem BioAssay AID179 (DTP/NCI, 2004).
Active and inactive are the calls of the source.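 The calls were made as follows: active = compounds giving half or more protection of infected cells from virus-caused growth loss, again on retest; inactive = the rest.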

Test system: CEM cells HIV-1 protection, formazan growth assay
Experiment: NCI AIDS Antiviral Assay
Settings: for IC50: measured here: growth of uninfected CEM cells
In short: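 Five concentrations of each compound were applied to infected and uninfected human CEM cells. Protection from HIV-1 was judged from growth measured with a soluble formazan assay.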

O=C(O)c1cc(N=Nc2ccc(CCc3ccc(N=Nc4cc(C(=O)O)c(O)c5ccccc45)cc3S(=O)(=O)O)c(S(=O)(=O)O)c2)c2ccccc2c1O showed an EC50 of over 12.6 µM and an IC50 of over 12.6 µM.

CCOC(=O)c1[nH]c2nc(SC)nc(NC)c2c1N was tested, and the EC50 was over 200 µM and the IC50 was 129 µM.

C#CCOCn1cnc2ncnc(N)c21 showed an EC50 of over 1230 µM and an IC50 of over 1230 µM.

Work on CNC(=O)C(C(=O)NC)n1cnc(C(=O)OC)c1O yielded an EC50 of over 200 µM and an IC50 of over 200 µM.

With CN(C)C1C(=O)C(C(=O)NCN2CCCC2)=C(O)C2(O)C(=O)C3=C(O)c4c(O)cccc4C(C)(O)C3CC12 (centres undefined) the EC50 was over 63.1 µM and the IC50 was 53.7 µM.

Cc1ccsc1/C=N/Nc1cc(C)c2ccccc2n1 showed an EC50 of over 200 µM and an IC50 of 5.37 µM.

With C=C1[C@H]2C[C@H]3[C@@H]4N5C[C@]6(C)CCCC47C6[C@@]5(O)CC3([C@@H]1O)[C@H]7[C@H]2O the outcome was “inactive”.

For CC(=O)O/N=C1\C=Cc2c(no[n+]2[O-])C1=O, the EC50 was over 200 µM and the IC50 was 18.2 µM.

Compound CN(C)c1ccc2nc(C(=O)O)c(=O)n(C)c2c1 has an EC50 of over 200 µM and an IC50 of over 200 µM.

For CN(C)c1nc(=NCc2ccccn2)ss1, the EC50 was over 17.4 µM and the IC50 was 9.33 µM.

For CCOC(=O)c1cn2c3c(cccc3c1=O)CC2, the EC50 was over 132 µM and the IC50 was over 132 µM.

Work on O=[N+]([O-])c1ccc2cnn(CCO)c2c1 yielded an EC50 of over 200 µM and an IC50 of over 200 µM.

CC(=O)Oc1ccc2c(c1)oc1c3ccc(OC(C)=O)cc3n(C)c(=O)c21 showed an EC50 of over 200 µM and an IC50 of 107 µM.

CC(C)(C)n1c(=O)n2c(-c3ccccc3)c(-c3ccccc3)n2c1=O gave an EC50 of over 200 µM and an IC50 of 25.7 µM.

With O=C(O)Cc1ccc2c(c1)C(=O)c1ccccc1CO2 the outcome was “inactive”.

Work on Nn1nnc2ccccc21 yielded an EC50 of over 200 µM and an IC50 of over 200 µM.

Work on CC(=O)NNc1nc(C)c(C(/C=C/c2ccc([N+](=O)[O-])cc2)=N/NC(N)=S)s1 yielded an EC50 of over 69.2 µM and an IC50 of over 69.2 µM.

O=C(/C=C/c1ccccc1F)c1ccccc1 gave an EC50 of over 22.9 µM and an IC50 of over 22.9 µM.

Compound O=C(Nc1ccc(Cl)cc1Cl)c1cc2nc3ccccc3c(=O)n2c2ccccc12 has an EC50 of over 100 µM and an IC50 of over 100 µM.

CC1=CC[P+](Cc2ccccc2)(c2ccccc2)C1 (centres undefined) showed an EC50 of over 724 µM and an IC50 of 40.7 µM.

COc1nc(=O)n(C2CC(F)C(CO)O2)cc1C (centres undefined) showed an EC50 of 79.4 µM and an IC50 of over 200 µM.

CC(C)C1CNC2N1C(=O)C2(C)OCc1ccccc1 (centres undefined) showed an EC50 of over 251 µM and an IC50 of 155 µM.

For COc1cc(-c2ccc(Br)[nH]2)[nH]c1C=NCC(C)C, the EC50 was over 200 µM and the IC50 was 10.5 µM.

In the case of N#CC1CC2(C1)OCCS2 (centres undefined), the outcome is reported as “inactive”.

CCSC1=N/C(=C\c2ccco2)C(Nc2ccc(C)cc2)=N1 gave an EC50 of over 50.1 µM and an IC50 of over 50.1 µM.

COCN1COCN(COC)C1=O showed an EC50 of over 646 µM and an IC50 of over 646 µM.

For Nc1ncnc2c1ncn2CC(=O)NCCCCO, the EC50 was over 200 µM and the IC50 was over 200 µM.

CCSc1ccc(N=[N+]([O-])c2ccc(SCC)c(Cl)c2)cc1Cl was tested, and the EC50 was over 50.1 µM and the IC50 was over 50.1 µM.

For C[N+]1(C)CCCC(C#N)(c2ccccc2)CC1 (centres undefined), the EC50 was over 813 µM.

For [O-]c1on[n+]2c1CSC2, the EC50 was over 1740 µM and the IC50 was over 1740 µM.

Compound COc1ccc(C2c3ccccc3C3(O)CC2CC(=O)O3)cc1 (centres undefined) has an EC50 of over 200 µM and an IC50 of over 100 µM.

COc1cc(/C=C/c2ccc(O)c(OC)c2)cc(OC)c1 was tested, and the EC50 was over 126 µM and the IC50 was 2.14 µM.

C=CCOc1cc2c(ccc1=O)-c1c(cc(OC)c(OC)c1OC)CCC2NC(C)=O (centres undefined) was tested, and the EC50 was over 200 µM and the IC50 was 3.63 µM.

C[N+]1(C)CCC(C#N)(c2ccccc2)CC1 showed an EC50 of over 724 µM.

In the case of C[Si](C)(C)O[C@@H]1CCCC1NCC#N (some centres undefined), the outcome is reported as “inactive”.

For NC(=O)C(N)CC12CC3CC(CC(C3)C1)C2 (centres undefined), the EC50 was over 200 µM and the IC50 was 39.8 µM.

COc1cc2c(cc1OC)[C@H](C(=O)O)[C@@H](c1ccc(OC(C)C)c(OC)c1)N(C)C2=O showed an EC50 of over 200 µM and an IC50 of over 200 µM.

Cc1cc(C)nc(NC(=S)Nc2ccc([N+](=O)[O-])cc2)c1 was tested, and the EC50 was over 200 µM and the IC50 was over 200 µM.

For COc1ccc([P+](Cc2ccccc2)(c2ccccc2)c2ccc3ccccc3c2)cc1 (centres undefined), the EC50 was over 200 µM and the IC50 was 0.794 µM.

With O=C1C=CC2OC(c3ccccc3)[C@H](O)C2O1 (some centres undefined) the EC50 was over 1070 µM and the IC50 was 6.92 µM.

For NC(=O)c1ncn(CCN2CCN(C(=O)NCCCCCCNC(=O)N3CCN(CCn4cnc(C(N)=O)c4N)CC3)CC2)c1N, the outcome was “inactive”.

Cc1[nH]c(=O)[nH]c(=O)c1C(=O)O showed an EC50 of over 200 µM and an IC50 of over 200 µM.

Compound O=C(O)CCS(=O)(=O)O has an EC50 of over 200 µM and an IC50 of over 200 µM.

For CCCCOP(=O)(OCCCC)C(NS(=O)(=O)c1ccccc1)(C(=O)OCC)C(F)(F)F (centres undefined), the EC50 was over 200 µM and the IC50 was 19.1 µM.

COc1cc2c(cc1OC)C(C#N)N(C(=O)c1ccccc1)C=C2OC(=O)c1ccccc1 (centres undefined) was tested, and the outcome was “inactive”.

Work on COc1ccc(NC(=O)c2c(NC(=O)CN3CCOCC3)c(C#N)c3n2CCC3)cc1 yielded an EC50 of over 100 µM and an IC50 of over 100 µM.
